melting point [°C] | Compound
121 to 122 | CCOC(=O)CNC(=O)CCCCCNC(=O)c1ccc(F)cc1
189 to 192 | O=C(O)[C@@H]1Cc2cc(O)c(O)cc2CN1C(=O)c1ccccc1
141 to 142 | CCOC(=O)C1=C(C)NC(C)=C(C(=O)OCC)C1c1ccccc1/C=C(\C)c1ccccc1
94 to 96 | O=C(CCCCCNC(=O)[C@H](Cc1c[nH]c2ccccc12)NC(=O)CCCc1c[nH]c2ccccc12)NO
207 to 208 | COc1ccc(N2CCN(Cc3n[nH]c4c3CCc3ccccc3-4)CC2)cc1
151 to 152 | Cc1cc2c(c(C)c1NC(=O)CC(C)(C)C)C(c1ccc(C(C)C)cc1)CS2 (centres undefined)
85 to 87 | CCCCCN1C(=O)C2(COc3cc4c(cc32)OCO4)c2ccccc21 (centres undefined)
116 | c1ccc(OCCN2CCC(CNc3nc4ccccc4s3)CC2)cc1
205 to 208 | CC(=O)c1c(C)[nH]c(-c2ccc(Cl)cc2)c1N
188 to 189 | COc1ccc2c(c1)CN(Nc1ccncc1)CC2
258 to 259 | COc1ccc(C(=O)Nc2cc(NC(=O)c3ccc(OCCN4CCCC4)cc3)ccc2C)cc1OC
259 | CN(C)Cc1ccccc1-c1ccc(N2CCc3c(C(F)(F)F)nn(-c4cccc(C(N)=O)c4)c3C2=O)cc1
90 to 91 | CC(=O)N1CCC(CCCC(=O)c2ccc3c(c2)CCNCC3)CC1
216 to 218 | NCC(=O)NCc1cc(=O)c(O)co1
160 to 162 | O=C(Nc1ccc(C(=O)SCC2C(=O)OCC2c2ccccc2)cc1)OCc1ccccc1 (centres undefined)
112 to 114 | O=C(NC1C2CC3CC(C2)CC1C3)C1CCCCN1 (centres undefined)

melting point [°C] | Compound
247 to 250 | CCC(=O)N1CCN(c2n[nH]c3ncnc(Nc4cccc(Cl)c4)c23)CC1
54 to 56 | Cc1cc(C(F)(F)F)nc(OCC2CO2)c1C(=O)C1=C(O)C2CCC(C2)C1=O (centres undefined)
53 to 57 | CN1CCC2(C)c3cc(C(=O)C(=O)OCc4ccccc4)ccc3N(C)C12 (centres undefined)
175 to 176 | Oc1ccc2c(c1O)Cc1cccc3c1C2CNC3 (centres undefined)
177 to 180 | COc1ccc(-c2nc(N3CCOCC3)c3sc(CN(C)c4ncc(C(=O)NO)cn4)cc3n2)cn1
205 to 207 | CCc1cc(NC(=O)N2CCc3cc(OC)c(C(F)(F)F)cc32)cc(-c2cccnc2)c1
79 to 81 | CC(C)(C)c1cc(CCc2ccccc2NC(=O)NC2CCN(Cc3ccccc3)CC2)cc(C(C)(C)C)c1O
177 to 181 | CC12CCC3c4ccc(C(=O)O)cc4CCC3C1CCC2C(=O)C=Cc1ccccc1 (centres undefined)
75 to 76 | CNC1=NN(c2cccc(Cl)c2)CC1C (centres undefined)
58 to 59 | COc1cccc(CCCC(=O)O)c1OC
191 to 193 | CC(C)(NC(=O)c1nnc2ccc(NCCCN3CCC(OC(c4ccccc4)c4ccccc4)CC3)nn12)C(=O)O
95 | COc1ccc(C2CCc3cc(OC)ccc3C2CCO)cc1 (centres undefined)
97 to 99 | CCOC(=O)C(=O)NNc1ccc(N)cc1
315 | O=C(O)N1CCN2c3sc4c(c3CN(c3ccccc3Cl)CC12)CC=C4 (centres undefined)
246 to 248 | COc1ccc2c(c1)CCc1cc(=O)[nH]nc1-2
165 | CCN1CCc2ccc(Nc3ncc(Cl)c(N[C@@H]4CCCC[C@H]4NC(=O)C(F)(F)F)n3)cc2CC1

The next lines start with the molecule.

Compound | melting point [°C]
COc1cc2c(cc1OC)CNCC2 | 139 to 141
COCCN(CCOC)c1ccc(Nn2c(C)ccc2C)nn1 | 112 to 114
CC(C)(C)NS(=O)(=O)c1ccc([N+](=O)[O-])cc1 | 105 to 109
COCCc1sc2ncnc(N)c2c1-c1ccc(NC(=O)c2ccccc2)cc1 | 200 to 202
Nc1ccc2[nH]c(CO)cc2c1 | 159 to 160
N#Cc1ccc(N2C(=O)C3CSCN3C2=O)c2ccccc12 (centres undefined) | 223 to 225
CCC(C)OC(=O)C(C(=O)O)=C1SCS1 (centres undefined) | 80 to 82
Cc1cc(=O)c(-c2ccc(Oc3ccc(OC(F)(F)F)cc3)cc2)c(C)[nH]1 | 244 to 248
O=C(CC(F)(F)F)NCC(=O)n1ccc2cc(/C=C/C(c3cc(Cl)c(F)c(Cl)c3)C(F)(F)F)ccc21 (centres undefined) | 121 to 126
COc1cc2c(cc1OC)C(C=Cc1ccc(Br)cc1)=NN=C(C)C2 | 156 to 158
O=C1NC(=Cc2cccc(Cl)c2)C(=O)C1=NO | 185
NCc1ccc(-c2csc(N=C(N)N)n2)o1 | 160 to 163
N#CC(=Cc1ccc([N+](=O)[O-])cc1)c1ccc([N+](=O)[O-])cc1 | 216 to 218
N#CC(CCN1CCC(C(=O)ON2C(=O)CCC2=O)(c2ccccc2)CC1)(c1ccccc1)c1ccccc1 | 156 to 158
Cc1cc(C2=NOC(C)(c3cc(Cl)cc(Cl)c3)C2)ccc1C(=O)NCC(O)CO (centres undefined) | 98
OC1(c2ccc3[nH]cc(CCN4CCCC4)c3c2)CCCCC1 | 66 to 78
C1=C(CCc2c[nH]c3ccccc23)CCNC1 | 155
CC(C)OC(=O)c1cc(-n2c(=O)cc(C(F)(F)F)[nH]c2=O)c(F)cc1Cl | 127 to 129
CCSc1nc(C)[nH]c1CO | 153
CCOC(=O)C(C#N)Cc1cc(OC)c(OC)cc1C (centres undefined) | 39 to 40
CCCCNCP(=O)(O)O | 236 to 240
CCOCc1nc2c(N)nc3cc(OCCCCCCNC(=S)NC(C)C)ccc3c2n1CC(C)(C)NC(C)=O | 110 to 120
CC(C)C(C)OC(=S)c1ccc(N)cc1Cl (centres undefined) | 43 to 46

Compound | melting point [°C]
COc1ccc(N=C(NC(=O)Nc2ccc(-c3ncn(-c4ccc(C(F)(F)F)cc4)n3)cc2)SCOC(=O)C(C)C)c(C)c1 | 160 to 164
C#CCOc1cc(-n2nnn(CCC)c2=O)c(Cl)cc1Cl | 70 to 72
C[C@@H](O)[C@](O)(Cn1cncn1)c1ccc(F)cc1F (racemic) | 115 to 117
CCCCc1oc2ccccc2c1C(=O)N(CC)Cc1ccc2cc(OCc3nnn[nH]3)ccc2c1 | 78 to 84
CC1(C)C=C(c2ccccn2)c2cc(-c3ccccc3)ccc2OC1 | 115 to 120
Cc1[nH]c(=S)[nH]c(=O)c1Cc1cccnc1 | 328 to 331
Cc1cc(C)cc(Cc2c(C(C)C)c(=O)[nH]c(=O)n2C/C=C/c2ccccc2)c1 | 180 to 181
COC(=O)Nc1cc(C)c(Br)cc1I | 140 to 141
CC(=O)OC1=CC(C)C2(C)C(=C1)CCC1C3CCC(=O)C3(C)CCC12 (centres undefined) | 104 to 107
NC(=O)C(=O)NCCc1ccc(OCc2ccccc2)c(OCc2ccccc2)c1 | 187
COc1cc(OC)nc(Oc2ccc3c(c2C(=O)O)OCO3)n1 | 198 to 201
CCCCn1c(=O)n(CCC)c(=O)c2[nH]c(C)nc21 | 174 to 175
CCc1ccc2c(=O)c(CSC)cn(C)c2c1 | 104 to 106
CCc1ccc(Nc2nc3cc(NC(=O)c4ccc([N+](=O)[O-])cc4Cl)ccc3o2)cc1 | > 250
O=c1cc(-c2nnn[nH]2)occ1-c1ccccc1 | 237 to 238
CCCCCCC[C@H]1O[C@H]1C(=O)O | 53 to 55
O=c1c2ncn3c2n(c(=O)n1Cc1ccccc1)CC=C3c1cccc(C(F)(F)F)c1 | 198 to 200
Cc1ccc(O)cc1N=C(c1ccccc1)c1ccccc1 | 106 to 108
COc1cccc(-c2ccc3c(c2)C(=O)N(Cc2cccnc2)C3=O)c1 | 115 to 117
COc1ccc(OCCO)c(C=O)c1 | 68 to 72
COCOC(C(Cc1ccccc1)NC(=O)[C@@H](NC(=O)OCc1ccccc1)C(C)C)C(Cc1ccccc1)NC(=O)[C@@H](NC(=O)OCc1ccccc1)C(C)C (some centres undefined) | 197 to 198
COc1cccc2c1C(=O)c1c(OC)cc(CBr)cc1C2=O | 176 to 178
CCn1c(=O)c2c(nc(/C=C/c3ccc(OCCCCN=[N+]=[N-])cc3)n2C)n(CC)c1=O | 158 to 159

Compound | melting point [°C]
O=C(Oc1ccccc1)Oc1ccccc1C(=O)NC(Oc1ccccc1)C(Cl)(Cl)Cl (centres undefined) | 110 to 111
Cc1cc(C)c(-c2cn(C)c3nc(N)[nH]c(=O)c23)c(C)c1 | 184 to 186
O=C(Nc1nc(C2CC2)no1)C1c2ccccc2Oc2ccccc21 | 275
COC(=O)c1ccccc1-n1c(CCl)nc2ccc(C(F)(F)F)cc2c1=O | 169 to 170
O=C(/C=C/c1ccn(S(=O)(=O)c2ccc3ccccc3c2)c1)NO | 153
Cn1nc(Cc2ccc(O)c(Cl)c2Cl)c(Cl)c1OC(F)F | 127 to 128
O=C1N(c2c(Cl)cccc2Cl)Cc2cnc(Nc3ccccc3)nc2N1c1cccc(CCO)c1 | > 250
ON=c1cc(-c2cc3cccn3cn2)oc2ccc(OCCc3ccc(Cl)cc3)cc12 | 247 to 249
Cc1cc(NC(=O)c2c(Cl)cccc2Cl)c2nccc(-n3ccnc3)c2c1 | 260 to 261
CN(Cc1ccc2c(Br)c(OCc3nnn[nH]3)ccc2c1)C(=O)c1oc2ccccc2c1CCc1ccccc1 | 56 to 59
CC(=O)SCC(Cc1ccccc1)C(=O)Nc1cccc(C(=O)N[C@@H](Cc2ccccc2)C(=O)OCc2ccccc2)c1 (some centres undefined) | 89 to 91
N#Cc1c(-c2ccccc2)c(-c2ccccc2)nn(CC(=O)NN)c1=O | 191 to 192
CCOP(C)(=O)CCNS(=O)(=O)c1ccc(C)cc1 (centres undefined) | 124 to 126
CC(C)(C)OC1OC(=O)CC(C)(C)C1OS(C)(=O)=O (centres undefined) | 64
Clc1cc(Cl)c2c(c1)[nH]c1c2ccc2cc[nH]c21 | > 250
O=Cc1cc2cc(F)c(F)cc2nc1Cl | 226 to 229
Cc1ccc2c(C#N)cn(-c3ccc(C(C)C)cc3Br)c2n1 | 176
CCc1nccn1-c1ccc(NC(=O)c2ccc(Cl)cc2)cc1 | 265 to 267
COC1=C2C(=C(C(C)C)CC1(C)OC)C(=O)N(CSc1nnnn1-c1ccccc1)S2(=O)=O (centres undefined) | 169 to 171
N#CC(Cl)Cc1ccc(Cl)cc1C(=O)c1ccccc1Cl (centres undefined) | 102 to 103
COC(=O)c1cc2cc(OC)c(OC)cc2c(-c2ccnc(-n3c(=O)cc(C(=O)N4CCOCC4)c4ccccc43)c2)c1C(=O)OC | 247 to 249
